A value given as a limit tells only on which side of the number the result lay.

Data set [1] has as its system Pseudomonas aeruginosa. Kind of data set: Antibacterial activity against wild type Pseudomonas aeruginosa PAO1 assessed as reduction in bacterial growth by measuring doxycycline MIC at 8 ug/ml incubated for 18 hrs in presence of doxycycline by broth microdilution assay (reference value: 16 ug/ml). In kind it is functional. The conditions noted are these: dose 8 µg/ml. (In general: Broth dilution looks for growth in wells or tubes with falling amounts of substance.)

The subject of data set [2] is Pseudomonas aeruginosa. Kind of data set: Antibacterial activity against Pseudomonas aeruginosa 100036 assessed as reduction in bacterial growth by measuring chloramphenicol MIC at 4 ug/ml incubated for 18 hrs in presence of chloramphenicol by broth microdilution assay (reference value: 1024 ug/ml). It counts as functional. Particulars: dose 4 µg/ml.
For data set [3], the system named is Pseudomonas aeruginosa. Kind of data set: Antibacterial activity against Pseudomonas aeruginosa 100036 assessed as reduction in bacterial growth by measuring doxycycline MIC at 4 ug/ml incubated for 18 hrs in presence of doxycycline by broth microdilution assay (reference value: 64 ug/ml). It counts as functional. Particulars: dose 4 µg/ml.
The test system of data set [4] is Pseudomonas aeruginosa. Put plainly: Antibacterial activity against Pseudomonas aeruginosa 101885 assessed as potentiation of chloramphenicol-induced antibacterial activity by measuring chloramphenicol MIC at 9.8 uM incubated for 18 hrs in presence of chloramphenicol by broth microdilution assay (reference value: 512 ug/ml). It counts as functional.
Data set [5] has as its system Pseudomonas aeruginosa. Kind of data set: Potentiation of chloramphenicol-induced antibacterial activity against Pseudomonas aeruginosa PAO200 harboring mexA-mexB-oprM deletion mutant assessed as fold change in chloramphenicol MIC at <=9.8 uM incubated for 18 hrs in presence of chloramphenicol by broth microdilution assay. In kind it is functional. The conditions noted are these: dose microM <=9.8.

Data set [6] has as its system Pseudomonas aeruginosa. Kind of data set: Antibacterial activity against Pseudomonas aeruginosa 264-101354 assessed as fractional inhibitory concentration index incubated for 18 hrs in presence of tigecycline by broth microdilution assay. In kind it is functional.
In data set [7] the test system is Acinetobacter baumannii. Put plainly: Potentiation of doxycycline-induced antibacterial activity against Acinetobacter baumannii ATCC 17978 assessed as fold change in doxycycline MIC at 9.8 uM incubated for 18 hrs in presence of doxycycline by broth microdilution assay relative to control. In kind it is functional.
Data set [8] deals with Pseudomonas aeruginosa. Put plainly: Potentiation of chloramphenicol-induced antibacterial activity against Pseudomonas aeruginosa 114228 assessed as fold change in chloramphenicol MIC at 9.8 uM incubated for 18 hrs in presence of chloramphenicol by broth microdilution assay relative to control. In kind it is functional.
Data set [9] has as its system Pseudomonas aeruginosa. Kind of data set: Antibacterial activity against Pseudomonas aeruginosa 114228 assessed as fractional inhibitory concentration incubated for 18 hrs in presence of tigecycline by broth microdilution assay. In kind it is functional.
Data set [10] has as its system Pseudomonas aeruginosa. Kind of data set: Antibacterial activity against Pseudomonas aeruginosa 264-101354 assessed as fractional inhibitory concentration incubated for 18 hrs in presence of minocycline by broth microdilution assay. It counts as functional.
For data set [11], the system named is Pseudomonas aeruginosa. Put plainly: Antibacterial activity against Pseudomonas aeruginosa 101243 assessed as fractional inhibitory concentration index incubated for 18 hrs in presence of rifampicin by broth microdilution assay. In kind it is functional.
Data set [12] concerns Pseudomonas aeruginosa. Kind of data set: Potentiation of chloramphenicol-induced antibacterial activity against Pseudomonas aeruginosa 100036 assessed as fold change in chloramphenicol MIC at 9.8 uM incubated for 18 hrs in presence of chloramphenicol by broth microdilution assay relative to control. It counts as functional.
The test system of another data set is HEK293. Put plainly: Cytotoxicity against human HEK293 cells assessed as cell viability at 50 uM incubated for 48 hrs in presence of doxycycline by prestoblue assay. In kind it is cell-based. Particulars: hek293, 48 h.
For data set [13], the system named is Pseudomonas aeruginosa. Put plainly: Antibacterial activity against Pseudomonas aeruginosa 262-101856 assessed as fractional inhibitory concentration incubated for 18 hrs in presence of tigecycline by broth microdilution assay. In kind it is functional.
The test system of data set [14] is Pseudomonas aeruginosa. Put plainly: Potentiation of chloramphenicol-induced antibacterial activity against Pseudomonas aeruginosa 262-101856 assessed as fold change in chloramphenicol MIC at 9.8 uM incubated for 18 hrs in presence of chloramphenicol by broth microdilution assay relative to control. In kind it is functional.
Data set [15] relates to Pseudomonas aeruginosa. Put plainly: Antibacterial activity against Pseudomonas aeruginosa 260-97103 assessed as fractional inhibitory concentration incubated for 18 hrs in presence of rifampicin by broth microdilution assay. In kind it is functional.
The test system of data set [16] is Pseudomonas aeruginosa. Kind of data set: Antibacterial activity against Pseudomonas aeruginosa 101885 assessed as fractional inhibitory concentration incubated for 18 hrs in presence of rifampicin by broth microdilution assay. It counts as functional.
Data set [17] relates to Pseudomonas aeruginosa. Put plainly: Antibacterial activity against Pseudomonas aeruginosa 101243 assessed as fractional inhibitory concentration index incubated for 18 hrs in presence of minocycline by broth microdilution assay. In kind it is functional.
For data set [18], the system named is Pseudomonas aeruginosa. Put plainly: Potentiation of doxycycycline-induced bactericidal activity against Pseudomonas aeruginosa PAO1 assessed as reduction in bacterial colonies incubated for >= 24 hrs in LB medium in presence of doxycycline followed by plating on agar plate and measured after 20 hrs by time-kill assay. The conditions noted are these: dose 4.9-9.8 µM, time hrs >=44. In kind it is functional, organism-based.

The test system of data set [19] is Pseudomonas aeruginosa. Put plainly: Antibacterial activity against Pseudomonas aeruginosa 100036 assessed as potentiation of doxycycline-induced antibacterial activity by measuring doxycycline MIC at 7.6 uM incubated for 18 hrs in presence of doxycycline by broth microdilution assay (reference value: 64 ug/ml). It counts as functional.
Data set [20] deals with Pseudomonas aeruginosa. Put plainly: Potentiation of doxycycline-induced antibacterial activity against Pseudomonas aeruginosa 100036 assessed as fold change in doxycycline MIC at 7.6 uM incubated for 18 hrs in presence of doxycycline by broth microdilution assay relative to control. It counts as functional.
Data set [21] concerns Acinetobacter baumannii. Put plainly: Potentiation of chloramphenicol-induced antibacterial activity against Acinetobacter baumannii ATCC 17978 assessed as fold change in chloramphenicol MIC at 7.6 uM incubated for 18 hrs in presence of chloramphenicol by broth microdilution assay relative to control. It counts as functional.
The test system of data set [22] is Pseudomonas aeruginosa. Put plainly: Potentiation of chloramphenicol-induced antibacterial activity against Pseudomonas aeruginosa 101885 assessed as fold change in chloramphenicol MIC at 7.6 uM incubated for 18 hrs in presence of chloramphenicol by broth microdilution assay relative to control. It counts as functional.
Data set [23] has as its system Pseudomonas aeruginosa. Put plainly: Potentiation of chloramphenicol-induced antibacterial activity against Pseudomonas aeruginosa 101243 assessed as fold change in chloramphenicol MIC at 7.6 uM incubated for 18 hrs in presence of chloramphenicol by broth microdilution assay relative to control. In kind it is functional.
A further data set relates to Enterobacter cloacae. Kind of data set: Potentiation of chloramphenicol-induced antibacterial activity against Enterobacter cloacae ATCC 117029 assessed as fold change in chloramphenicol MIC at 7.6 uM incubated for 18 hrs in presence of chloramphenicol by broth microdilution assay relative to control. In kind it is functional.
Data set [24] deals with Pseudomonas aeruginosa. Put plainly: Antibacterial activity against Pseudomonas aeruginosa 101243 assessed as potentiation of doxycycline-induced antibacterial activity by measuring doxycycline MIC at 7.6 uM incubated for 18 hrs in presence of doxycycline by broth microdilution assay (reference value: 4 ug/ml). In kind it is functional.
In data set [25] the test system is Pseudomonas aeruginosa. Kind of data set: Potentiation of doxycycline-induced antibacterial activity against Pseudomonas aeruginosa 264-101354 assessed as fold change in doxycycline MIC at 7.6 uM incubated for 18 hrs in presence of doxycycline by broth microdilution assay relative to control. In kind it is functional.
Data set [26] relates to Pseudomonas aeruginosa. Put plainly: Potentiation of doxycycline-induced antibacterial activity against Pseudomonas aeruginosa 260-97103 assessed as fold change in doxycycline MIC at 7.6 uM incubated for 18 hrs in presence of doxycycline by broth microdilution assay relative to control. In kind it is functional.
The subject of data set [27] is Pseudomonas aeruginosa. Kind of data set: Potentiation of chloramphenicol-induced antibacterial activity against Pseudomonas aeruginosa 259-96918 assessed as fold change in chloramphenicol MIC at 7.6 uM incubated for 18 hrs in presence of chloramphenicol by broth microdilution assay relative to control. In kind it is functional.
The subject of data set [28] is Pseudomonas aeruginosa. Kind of data set: Antibacterial activity against Pseudomonas aeruginosa 264-101354 assessed as reduction in bacterial growth by measuring chloramphenicol MIC at 8 ug/ml incubated for 18 hrs in presence of chloramphenicol by broth microdilution assay (reference value: 4096 ug/ml). In kind it is functional. The conditions noted are these: dose 8 µg/ml.

Usually MIC stands for the smallest concentration in the dilution series that meets the test's criterion for growth inhibition. With `CO[C@H]1/C=C/O[C@@]2(C)Oc3c(C)c(O)c4c(O)c(c(/C=N/N5CCN(C)CC5)c(O)c4c3C2=O)NC(=O)/C(C)=C\C=C\[C@H](C)[C@H](O)[C@@H](C)[C@@H](O)[C@@H](C)[C@H](OC(C)=O)[C@@H]1C` [RIFAMPIN], the MIC in the data set on Pseudomonas aeruginosa [1] was found to be 16 µg/mL; in the data set with Pseudomonas aeruginosa [2], 1020 µg/mL; in the data set on Pseudomonas aeruginosa [3], 64 µg/mL.
Turning to `CO[C@H]1/C=C/O[C@@]2(C)Oc3c(C)c(O)c4c(O)c(c(/C=N/N5CCN(Cc6cn(CCCCCCO[C@@H]7[C@@H](O[C@H]8O[C@H](CO)[C@@H](O)[C@H](N)[C@H]8O)[C@H](N)C[C@H](N)[C@H]7O[C@H]7O[C@H](CN)[C@@H](O)C[C@H]7N)nn6)CC5)c(O)c4c3C2=O)NC(=O)/C(C)=C\C=C\[C@H](C)[C@H](O)[C@@H](C)[C@@H](O)[C@@H](C)[C@H](OC(C)=O)[C@@H]1C.Cl.Cl.Cl.Cl.Cl`, in the data set on Pseudomonas aeruginosa [4], the MIC came out at 8 µg/mL. The “fold change (FC)” value in the data set with Pseudomonas aeruginosa [5] was found to be 16; with Acinetobacter baumannii [7], 0; with Pseudomonas aeruginosa [8] it was 4; in the data set with Pseudomonas aeruginosa [12] it was 4; in the data set with Pseudomonas aeruginosa [14] it was 4. Further, the entries for the “fractional inhibitory concentration index (FICI)” value with Pseudomonas aeruginosa [6], in the data set with Pseudomonas aeruginosa [11] and in the data set with Pseudomonas aeruginosa [17] were 0.19, 0.56 and below 0.31, respectively. Also, the FIC in the data set with Pseudomonas aeruginosa [9] is given as below 0.031; in the data set on Pseudomonas aeruginosa [10], 0.063; in the data set on Pseudomonas aeruginosa [13] it was below 0.063; in the data set with Pseudomonas aeruginosa [15], below 0.125; in the data set on Pseudomonas aeruginosa [16], 0.063. Also, the results for the Activity result in the data set on HEK293 and in the data set on Pseudomonas aeruginosa [18] were “Non-Toxic” and “Dose-dependent effect”, respectively.
In the case of `CO[C@H]1/C=C/O[C@@]2(C)Oc3c(C)c(O)c4c(O)c(c(/C=N/N5CCN(Cc6cn(CCCCCCCCCCCCO[C@@H]7[C@@H](O[C@H]8O[C@H](CO)[C@@H](O)[C@H](N)[C@H]8O)[C@H](N)C[C@H](N)[C@H]7O[C@H]7O[C@H](CN)[C@@H](O)C[C@H]7N)nn6)CC5)c(O)c4c3C2=O)NC(=O)/C(C)=C\C=C\[C@H](C)[C@H](O)[C@@H](C)[C@@H](O)[C@@H](C)[C@H](OC(C)=O)[C@@H]1C.O=C(O)C(F)(F)F.O=C(O)C(F)(F)F.O=C(O)C(F)(F)F.O=C(O)C(F)(F)F.O=C(O)C(F)(F)F`, the results for the MIC in the data set on Pseudomonas aeruginosa [19] and with Pseudomonas aeruginosa [24] were 0.5 µg/mL and 0.125 µg/mL, respectively. Moreover, the “fold change (FC)” value is reported as 4 in the data set on Pseudomonas aeruginosa [20]; 0 in the data set on Acinetobacter baumannii [21]; 4 with Pseudomonas aeruginosa [22]; 4 in the data set on Pseudomonas aeruginosa [23]; 0 with Enterobacter cloacae; 4 in the data set with Pseudomonas aeruginosa [25]. Also, the “fold change (FC)” value with Pseudomonas aeruginosa [26] and in the data set with Pseudomonas aeruginosa [27] was 4 throughout.
For the compound `NC[C@H]1O[C@H](O[C@H]2[C@H](O)[C@@H](O[C@H]3O[C@H](CO)[C@@H](O)[C@H](N)[C@H]3O)[C@H](N)C[C@@H]2N)[C@H](N)C[C@@H]1O` [TOBRAMYCIN], the MIC with Pseudomonas aeruginosa [28] is 4100 µg/mL.
